Test results from US20060235068A1, “OPHTHALMOLOGICAL SURGERY COLORANT AND DELIVERY SYSTEM” (priority 2000, published 2006).

Key:
[1] = system: ILM, the epiretinal membrane; experiment: ILM / epiretinal membrane peeling with indocyanine green staining in human patients; type: in vivo; details: human patients having macular holes, epiretinal membranes, or both
Excerpt: The procedures of Example are followed using human patients having macular holes, epiretinal membrances, or both.

[2] = Contrast characteristics of indocyanine green colorant after exposure; type: physicochemical; details: exposed to air, room temperature and lighted atmospheric conditions; at least 8 hours up to one month after exposure, or longer
[3] = system: retinal ILM
[4] = upon mixing; as marketed; cited from earlier work

With `CC1(C)C(/C=C/C=C/C=C/C=C2\N(CCCCS(=O)(=O)O)c3ccc4ccccc4c3C2(C)C)=[N+](CCCCS(=O)(=O)[O-])c2ccc3ccccc3c21` [indocyanine green] the “peeling of the ILM, the epiretinal membrane or both” value [1] was “Successful peeling”, the “contrast characteristics after exposure” value [2] was “satisfactory contrast characteristics” and the “staining of the underlying retina” value ([3]; after the ICG is removed, needle penetrated through the ILM) was “unstained underlying retina”. The “staining of the underlying ILM when posterior hyaloid remains attached” value ([3]; compared with globes in which the posterior cortical vitreous was removed prior to ICG injection) was “less staining of the underlying ILM”, the “effect of staining on ILM peeling” value ([3]; contrast between stained ILM and unstained retina) was “facilitates the continuation of ILM peeling” and the fluorescence stability [4] was “about 10 hours”.
